What was measured:
HIV-1 protease = HIV-1 protease (Human immunodeficiency virus type 1 group M subtype B, UniProt P04585); assay: inhibition constants against HIV-1 protease (method of Pennington et al.); type: biochemical
Description: We have measured the inhibition constants of each compound against HIV-1 protease using the method described essentially by M. W. Pennington et al., Peptides 1990, Gimet, E. and D. Andrew, Eds., Escom; Leiden, Netherlands (1990).
We measured the inhibition constants of the compounds listed in Table II against HIV-1 protease using the above-cited method of Pennington et al.

[1] = tested on: HIVIIIb in CCRM-CEM cells; assay: anti-viral potency in CCRM-CEM cells acutely infected with HIVIIIb, extracellular p24 antigen (method of Meek et al.); type: cell-based, HIV-1; CD4+ human T-cell lymphoma cells; settings: Human immunodeficiency virus 1
Method: Compounds of formula I were tested for their antiviral potency in several virological assays. In the first assay, the compounds were added as a solution in dimethylsulfoxide (DMSO) to a test cell culture of CCRM-CEM cells, a strain of CD4^+ human T-cell lymphoma cells, previously acutely infected with […] using standard protocols (see Meek, T. D. et al., "Inhibition of HIV-1 protease in infected T-lymphocytes by synthetic peptide analogues", Nature, 343, p. 90 (1990). Preferred compounds are those which are able to inhibit 90% of viral infectivity at a concentration of 1 μM or less. More preferred compounds are those which are able to inhibit 90% of viral infectivity at a concentration of 100 nM or less. The effect of the compounds on inhibiting the replication of the virus was measured by determining the HIV extracellular p24 antigen concentration using a commercial enzyme immunoassay (obtained from Coulter Corporation, Hialeah, Fla.). […] Ki and IC90 values are expressed in nM. The designation "ND" is used where a given compound was not tested.

Row | Compound | Ki (HIV-1 protease) | IC90 [1]
1 | CC(C)CN(C[C@@H](O)[C@H](Cc1ccccc1)NC(=O)OC1(C)CCOC1)S(=O)(=O)c1cccc(N)c1 (stereo partly drawn) [Compound 16, 3-Amino-N-((2 syn, 3S)-2-hydroxy-4-phenyl-3-(3-methyltetrahydrofuran-3-yl)oxycarbonylamino)butyl-N-isobutyl-benzenesulfonamide] | 1.5 nM | 
2 | COc1ccc(S(=O)(=O)N(CC2CCCC2)C[C@@H](O)[C@H](Cc2ccccc2)NC(=O)OC2COCOC2)cc1 [Compound 1, N-Cyclopentylmethyl-N-((2 syn, 3S)-2-hydroxy-4-phenyl-3-(1,3-dioxan-5-yl-oxycarbonylamino))butyl-4-methoxy-benzenesulfonamide] | < 0.1 nM | 5 nM
3 | CC(C)CN(C[C@@H](O)[C@H](Cc1ccccc1)NC(=O)OC1COC2OCCCC12)S(=O)(=O)c1cccc(N)c1 (single isomer, unassigned) [Compound 10] | < 0.1 nM | 
4 | Nc1ccc(S(=O)(=O)N(CC2CCCC2)C[C@@H](O)[C@H](Cc2ccccc2)NC(=O)OC2COCOC2)cc1 [Compound 3, 4-Amino-N-cyclopentylmethyl-N-((2 syn, 3S)-2-hydroxy-4-phenyl-3-(1,3-dioxan-5-yl-oxycarbonylamino))butyl-benzenesulfonamide] | 0.1 nM | 4 nM
5 | CC(C)CN(C[C@@H](O)[C@H](Cc1ccccc1)NC(=O)OC1COCOC1)S(=O)(=O)c1ccc(N)cc1 [Compound 4, 4-Amino-N-((2 syn, 3S)-2-hydroxy-4-phenyl-3-1,3-dioxan-5-yl-oxycarbonylamino)butyl-N-isobutyl-benzenesulfonamide] | 0.3 nM | 12 nM
6 | CC1(OC(=O)N[C@@H](Cc2ccccc2)[C@H](O)CN(CC2CCCC2)S(=O)(=O)c2cccc(N)c2)CCOC1 (stereo partly drawn) [Compound 15, 3-Amino-N-cyclopentylmethyl-N-((2 syn, 3S)-2-hydroxy-4-phenyl-3-(3-methyltetrahydrofuran-3-yl)oxycarbonylamino)butyl-benzenesulfonamide] | 0.4 nM | 
7 | CC(C)C[C@H](NC(=O)OC1COC2OCCCC12)[C@H](O)CN(CC1CCCCC1)S(=O)(=O)c1cccc(N)c1 (stereo partly shown) [Compound 12] | 1.5 nM | 
8 | COc1ccc(S(=O)(=O)N(CC2CCCC2)C[C@@H](O)[C@H](Cc2ccccc2)NC(=O)OCC2COCO2)cc1 (stereo partly drawn) [Compound 2, N-Cyclopentylmethyl-N-((2 syn, 3S)-2-hydroxy-4-phenyl-3-(1,3-dioxolan-4-yl-methoxycarbonylamino))butyl-4-methoxy-benzenesulfonamide] | 0.3 nM | 
9 | CC(C)CN(C[C@@H](O)[C@H](Cc1ccccc1)NC(=O)OC1COC2OCCCC12)S(=O)(=O)c1cccc(N)c1 (single isomer, unassigned) [Compound 9] | 0.1 nM | 
10 | CC(=O)Nc1ccc(S(=O)(=O)N(C)C[C@@H](O)[C@H](Cc2ccccc2)NC(=O)OC2COC3OCCCC23)cc1 (stereo partly drawn) [Compound 11, 4-Acetamido-N-((2 syn, 3S)-2-hydroxy-4-phenyl-3-tetrahydropyrano-[2,3-b]tetrahydrofuran-4-yloxycarbonylamino)butyl-N-methyl-benzenesulfonamide] | 160 nM | 
11 | Nc1cccc(S(=O)(=O)N(CC2CCCC2)C[C@@H](O)[C@H](Cc2ccccc2)NC(=O)OC2COCOC2)c1 [Compound 6, 3-Amino-N-cyclopentylmethyl-N-((2 syn, 3S)-2-hydroxy-4-phenyl-3-(1,3-dioxan-5-yl-oxycarbonylamino))butyl-benzenesulfonamide] | < 0.1 nM | 5 nM
12 | CC(C)CN(C[C@@H](O)[C@H](Cc1ccccc1)NC(=O)OC1COCOC1)S(=O)(=O)c1cccc(N)c1 [Compound 5, 3-Amino-N-((2 syn, 3S)-2-hydroxy-4-phenyl-3-1,3-dioxan-5-yl-oxycarbonylamino)butyl-N-isobutyl-benzenesulfonamide] | 0.15 nM | 7 nM
13 | Nc1cccc(S(=O)(=O)N(CC2CCCC2)C[C@@H](O)[C@H](Cc2ccccc2)NC(=O)OC2COC3OCCCC23)c1 (single isomer, unassigned) [Compound 8] | < 0.1 nM | 
14 | Nc1cccc(S(=O)(=O)N(CC2CCCC2)C[C@@H](O)[C@H](Cc2ccccc2)NC(=O)OC2COC3OCCCC23)c1 (single isomer, unassigned) [Compound 7] | < 0.1 nM | 
